The target of one data set is hCA IV (Homo sapiens, UniProt P22748). Kind of data set: stopped flow CO2 hydrase assay, hCA IV.
In a further data set the target is hCA IX (Homo sapiens, UniProt Q16790). Briefly: stopped flow CO2 hydrase assay, hCA IX.
Data set [1] addresses T1, soybean lipoxygenase (LOX) (Glycine max, UniProt P08170).
T1 construct: purchased Sigma Chemical, Co. (St. Louis, MO, USA)
T1 sequence (P08170 1-839): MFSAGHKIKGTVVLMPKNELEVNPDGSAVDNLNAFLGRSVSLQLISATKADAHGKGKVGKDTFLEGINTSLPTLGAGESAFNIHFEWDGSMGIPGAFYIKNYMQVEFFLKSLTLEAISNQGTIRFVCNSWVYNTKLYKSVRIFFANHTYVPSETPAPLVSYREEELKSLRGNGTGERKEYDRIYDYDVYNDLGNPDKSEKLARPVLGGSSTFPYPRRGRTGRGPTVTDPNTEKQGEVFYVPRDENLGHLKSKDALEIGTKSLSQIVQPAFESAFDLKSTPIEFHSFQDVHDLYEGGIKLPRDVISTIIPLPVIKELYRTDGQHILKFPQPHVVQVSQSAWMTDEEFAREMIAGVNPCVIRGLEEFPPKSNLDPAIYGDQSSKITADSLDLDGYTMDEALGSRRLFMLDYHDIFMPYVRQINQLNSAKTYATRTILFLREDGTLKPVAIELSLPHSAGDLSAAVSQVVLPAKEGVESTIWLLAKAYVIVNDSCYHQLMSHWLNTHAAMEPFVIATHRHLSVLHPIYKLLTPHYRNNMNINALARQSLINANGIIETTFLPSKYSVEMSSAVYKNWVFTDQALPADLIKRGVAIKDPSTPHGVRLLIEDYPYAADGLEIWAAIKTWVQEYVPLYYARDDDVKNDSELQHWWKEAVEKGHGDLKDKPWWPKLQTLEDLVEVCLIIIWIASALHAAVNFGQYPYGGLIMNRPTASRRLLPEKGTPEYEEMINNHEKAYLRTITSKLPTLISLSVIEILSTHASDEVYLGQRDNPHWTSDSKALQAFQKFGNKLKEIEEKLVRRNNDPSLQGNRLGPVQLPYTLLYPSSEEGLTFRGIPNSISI
Kind of data set: in vitro inhibition of soybean lipoxygenase, UV absorbance based enzyme assay. The class given is biochemical. Particulars: sodium linoleate 0.1 mM, pH 9; for inhibition at 100 µM / % LOX Inhibition at 100 Μμ: 100 μM compound; for inhibition at 100 µM: read-out: % LOX Inhibition at 100 Μμ. How it is done:
Most of the LOX inhibitors are antioxidants or free radical scavengers. LOXs contain a non-heme iron per molecule in the enzyme active site as high-spin Fe^2+ in the native state and the high spin Fe^3+ in the activated state.
A DMSO solution of the tested compound was incubated with sodium linoleate (0.1 mM) and 0.2 mL of soybean LOX solution (1/9 × 10^−4 w/v in saline) in buffer pH 9 (tris) and at room temperature.

A further data set addresses hCA I (Homo sapiens, UniProt P00915). Kind of data set: stopped flow CO2 hydrase assay, hCA I.
Another data set deals with hCA II (Homo sapiens, UniProt P00918). Briefly: stopped flow CO2 hydrase assay, hCA II.

Some results are limits rather than exact numbers.

One may read the Ki as the equilibrium dissociation constant of an inhibitor or competing ligand from its target. A low value points to a stronger hold on the target. For orientation: inhibition means how much of the control response was suppressed. Broadly, the IC50 is the concentration that inhibits the measured activity by half. A high value points to lower potency. In general, melting point refers to the temperature of the solid-liquid transition.

Chain of hCA IV (P22748 19-312): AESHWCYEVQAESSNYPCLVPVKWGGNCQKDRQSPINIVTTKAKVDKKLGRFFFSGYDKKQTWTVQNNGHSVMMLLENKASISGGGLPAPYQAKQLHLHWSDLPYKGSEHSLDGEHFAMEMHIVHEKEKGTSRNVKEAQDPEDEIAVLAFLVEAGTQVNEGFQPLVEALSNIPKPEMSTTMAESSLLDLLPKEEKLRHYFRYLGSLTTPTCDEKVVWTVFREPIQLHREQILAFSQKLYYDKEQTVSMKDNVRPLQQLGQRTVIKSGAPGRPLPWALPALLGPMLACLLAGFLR
Chain of hCA I (P00915 whole entry): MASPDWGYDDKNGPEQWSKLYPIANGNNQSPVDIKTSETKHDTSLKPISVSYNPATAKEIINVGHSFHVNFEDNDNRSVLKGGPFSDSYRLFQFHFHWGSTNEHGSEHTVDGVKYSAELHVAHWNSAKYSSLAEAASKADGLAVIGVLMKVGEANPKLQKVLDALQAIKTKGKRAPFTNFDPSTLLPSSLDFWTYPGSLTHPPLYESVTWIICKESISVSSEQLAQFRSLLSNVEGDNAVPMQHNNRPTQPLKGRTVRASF
Experimental for hCA II: (§1) An Applied Photophysics (Oxford, UK) stopped-flow instrument has been used for assaying the CA catalysed CO2 hydration activity [36]. […] The uncatalyzed rates were determined in the same manner and subtracted from the total observed rates. Stock solutions of inhibitor (0.1 mM) were prepared in distilled-deionized water and dilutions up to 0.01 nM were done thereafter with distilled-deionized water. […] The inhibition constants were obtained by non-linear least-squares methods using PRISM 3, as reported earlier [42, 43, 44, 45, 46, 47, 48, 49, 50] and represent the mean from at least three different determinations. The four CA isoforms were recombinant proteins obtained as reported earlier in our laboratory [42, 43, 44, 45, 46, 47, 48, 49, 50].
Experimental for hCA IV: as §1
Experimental for hCA IX: as §1

The molecule `O=C(COc1ccc2oc(=O)ccc2c1)NCCN1CCOCC1` [Compound 12b, N-(2-Morpholinoethyl)-2-((2-oxo-2H-chromen-6-yl)oxy)acetamide] had a melting point of 149 to 150 °C. The Ki on hCA IV was above 10 µM. This molecule had an inhibition constant (Ki) on hCA IX above 10 µM. Moreover, in data set [1], the inhibition at 100 µM is 64% and the IC50 was 16.5 µM. At hCA I, this molecule came in with a Ki above 10 µM. At hCA II, the Ki was above 10 µM.
As for `O=C(COc1ccc2ccc(=O)oc2c1)NCc1ccccc1` [Compound 5a, N-Benzyl-2-((2-oxo-2H-chromen-7-yl)oxy)acetamide], the melting point fell in the range of 167 to 168 °C. Also, the inhibitory constant (Ki) on hCA IV was above 10 µM. Affinity on hCA IX was put at a Ki of 0.0837 µM. Also, the inhibition at 100 µM in data set [1] was found to be 45%. The Ki at hCA I was above 10 µM. The inhibition constant (Ki) at hCA II is above 10 µM.
Consider `O=C(COc1ccc2ccc(=O)oc2c1)Nc1ccccc1` [Compound 7a, 2-((2-Oxo-2H-chromen-7-yl)oxy)-N-phenylacetamide], for which the melting point lay within 182 to 183 °C. The inhibition constant Ki at hCA IV is above 10 µM. Further, the Ki at hCA IX stood at 0.201 µM. In data set [1], the inhibition at 100 µM amounted to 50% and half-maximal inhibition (IC50) was put at 100 µM. Further, the Ki on hCA I was above 10 µM. On hCA II, this molecule displayed an inhibition constant (Ki) above 10 µM.
In the case of `COC(=O)c1ccccc1NC(=O)COc1ccc2oc(=O)ccc2c1` [Compound 9b, Methyl 2-(2-((2-oxo-2H-chromen-6-yl)oxy)acetamido)benzoate], the melting point is 213 to 214 °C. The Ki at hCA IV is above 10 µM. The affinity at hCA IX, expressed as Ki, was 2.04 µM. In addition, in data set [1], the inhibition at 100 µM was found to be 50% and half-maximal inhibition (IC50) required 100 µM. The molecule further came in with a Ki at hCA I above 10 µM. At hCA II, this molecule had a Ki above 10 µM.
`O=C(COc1ccc2oc(=O)ccc2c1)NCc1ccc(F)cc1` [Compound 6b, N-(4-Fluorobenzyl)-2-((2-oxo-2H-chromen-6-yl)oxy)acetamide]: the melting point fell in the range of 158 to 159 °C. This molecule registered an inhibition constant Ki on hCA IV above 10 µM. In addition, the inhibitory constant (Ki) on hCA IX turned out to be 2.78 µM. For the same molecule, in data set [1], the inhibition at 100 µM came out at 26%. The same molecule returned a Ki on hCA I above 10 µM. This molecule gave a Ki on hCA II above 10 µM.
For `O=C(COc1ccc2ccc(=O)oc2c1)NCc1ccc(F)cc1` [Compound 6a, N-(4-Fluorobenzyl)-2-((2-oxo-2H-chromen-7-yl)oxy)acetamide], the melting point fell in the range of 160 to 161 °C. At hCA IV, the Ki was above 10 µM. The affinity on hCA IX, expressed as Ki, was 2.54 µM. Also, in data set [1], the inhibition at 100 µM was 63% and the 50% inhibitory concentration (IC50) was 47 µM. The molecule also gave a Ki on hCA I above 10 µM. The molecule further displayed an inhibition constant (Ki) on hCA II above 10 µM.
Regarding `O=c1ccc2cc(O)ccc2o1` [Compound 1b, 6-hydroxycoumarin], the inhibition at 100 µM in data set [1] amounted to 40%.
As to `O=C(COc1ccc2ccc(=O)oc2c1)NCCc1ccccn1` [Compound 10a, 2-((2-Oxo-2H-chromen-7-yl)oxy)-N-(2-(pyridin-2-yl)ethyl)acetamide], the melting point fell in the range of 138 to 139 °C. The Ki at hCA IV was above 10 µM. Besides, the Ki at hCA IX turned out to be 2.38 µM. In addition, in data set [1], the inhibition at 100 µM was determined as 79% and inhibition was half-maximal at 15 µM (IC50). At hCA I, this molecule showed an inhibition constant (Ki) above 10 µM. The molecule also showed an inhibitory constant (Ki) at hCA II above 10 µM.
Take “2-((2-Oxo-2H-chromen-6-yl)oxy)-N-(pyridin-4-ylmethyl)acetamide [Compound 11b]”: in data set [1], the “% LOX Inhibition at 100 Μμ” value is recorded as 37%.
The molecule `COC(=O)c1ccccc1NC(=O)COc1ccc2ccc(=O)oc2c1` [Compound 9a, Methyl 2-(2-((2-oxo-2H-chromen-7-yl)oxy)acetamido)benzoate] displayed a melting point of 213 to 214 °C. In addition, the Ki at hCA IV is above 10 µM. At hCA IX, this molecule had a Ki of 2.73 µM. The inhibition at 100 µM in data set [1] came to 33%. Further, the inhibitory constant (Ki) at hCA I is above 10 µM. On hCA II, the Ki is above 10 µM.
`O=C(COc1ccc2ccc(=O)oc2c1)NCCN1CCOCC1` [Compound 12a, N-(2-Morpholinoethyl)-2-((2-oxo-2H-chromen-7-yl)oxy)acetamide] registered a melting point of 148 to 149 °C. At hCA IV, this molecule had a Ki above 10 µM. On hCA IX, this molecule came in with an inhibition constant Ki above 10 µM. Moreover, in data set [1], the inhibition at 100 µM came out at 56% and the IC50 worked out at 42.5 µM. Moreover, at hCA I, the inhibitory constant (Ki) is above 10 µM. The same molecule had a Ki on hCA II above 10 µM.
Molecule `O=C(COc1ccc2oc(=O)ccc2c1)Nc1ccc(F)cc1` [Compound 8b, N-(4-Fluorophenyl)-2-((2-oxo-2H-chromen-6-yl)oxy)acetamide] showed a melting point of 206 to 207 °C. Affinity at hCA IV was put at a Ki of 0.848 µM. The molecule further had an inhibitory constant (Ki) at hCA IX of 0.146 µM. Also, in data set [1], the inhibition at 100 µM was found to be 11%. The molecule further registered an inhibition constant Ki on hCA I above 10 µM. Besides, at hCA II, the inhibitory constant (Ki) was above 10 µM.
`O=C(COc1ccc2ccc(=O)oc2c1)NCCc1ccccc1` [Compound 4a, 2-((2-Oxo-2H-chromen-7-yl)oxy)-N-phenethylacetamide] came in with a melting point of 178 to 179 °C. This molecule also came in with a Ki at hCA IV above 10 µM. This molecule had a Ki on hCA IX of 0.166 µM. Further, in data set [1], the inhibition at 100 µM came out at 96% and the IC50 came out at 10 µM. Besides, the Ki at hCA I is above 10 µM. Further, the Ki on hCA II was above 10 µM.
As for “2-((2-Oxo-2H-chromen-7-yl)oxy)-N-(pyridin-4-ylmethyl)acetamide [Compound 11a]”, the “% LOX Inhibition at 100 Μμ” value in data set [1] was 77%.
The molecule `O=C(COc1ccc2oc(=O)ccc2c1)NCCc1ccccn1` [Compound 10b, 2-((2-Oxo-2H-chromen-6-yl)oxy)-N-(2-(pyridin-2-yl)ethyl)acetamide] registered a melting point of 141 to 142 °C. The molecule also registered a Ki at hCA IV above 10 µM. In addition, on hCA IX, the Ki is 2.15 µM. In addition, the inhibition at 100 µM in data set [1] is 40%. In addition, the inhibition constant (Ki) at hCA I is above 10 µM. The same molecule displayed a Ki on hCA II above 10 µM.
Regarding `O=C(COc1ccc2oc(=O)ccc2c1)NCCN1CCCCC1` [Compound 13b, 2-((2-Oxo-2H-chromen-6-yl)oxy)-N-(2-(piperidin-1-yl)ethyl)acetamide], the melting point was in the range of 115 to 116 °C. This molecule came in with an inhibitory constant (Ki) on hCA IV above 10 µM. On hCA IX, this molecule showed a Ki of 0.274 µM. In addition, the inhibition at 100 µM in data set [1] is 37.6%. The molecule further returned an inhibition constant Ki at hCA I above 10 µM. The same molecule displayed a Ki on hCA II above 10 µM.
Regarding `O=C(COc1ccc2ccc(=O)oc2c1)NCCN1CCCCC1` [Compound 13a, 2-((2-Oxo-2H-chromen-7-yl)oxy)-N-(2-(piperidin-1-yl)ethyl)acetamide], the melting point fell in the range of 116 to 117 °C. The molecule also gave an inhibition constant (Ki) on hCA IV above 10 µM. The inhibition constant Ki at hCA IX worked out at 1.97 µM. Further, in data set [1], the inhibition at 100 µM worked out at 50% and the IC50 worked out at 100 µM. The molecule also had a Ki at hCA I above 10 µM. Besides, at hCA II, the Ki is above 10 µM.
`O=C(COc1ccc2oc(=O)ccc2c1)Nc1ccccc1` [Compound 7b, 2-((2-Oxo-2H-chromen-6-yl)oxy)-N-phenylacetamide] registered a melting point of 182 to 183 °C. For the same molecule, on hCA IV, the affinity, expressed as Ki, was 2.65 µM. The same molecule showed an inhibition constant (Ki) at hCA IX of 0.202 µM. Further, the inhibition at 100 µM in data set [1] came to 45%. Besides, the Ki on hCA I is above 10 µM. For the same molecule, the inhibition constant (Ki) on hCA II was above 10 µM.
On to `O=C(COc1ccc2oc(=O)ccc2c1)NCc1ccccc1` [Compound 5b, N-Benzyl-2-((2-oxo-2H-chromen-6-yl)oxy)acetamide], for which the melting point was 161 to 162 °C. In addition, the inhibition constant Ki at hCA IV was above 10 µM. The Ki on hCA IX came to 0.0302 µM. Also, the inhibition at 100 µM in data set [1] was 42%. Further, the Ki at hCA I is above 10 µM. Also, the Ki on hCA II is above 10 µM.
With `O=C(COc1ccc2ccc(=O)oc2c1)Nc1ccc(F)cc1` [Compound 8a, N-(4-Fluorophenyl)-2-((2-oxo-2H-chromen-7-yl)oxy)acetamide], the melting point lay in the range of 208 to 209 °C. For the same molecule, the inhibitory constant (Ki) on hCA IV came to 0.35 µM. At hCA IX, this molecule had a Ki of 0.136 µM. Moreover, in data set [1], the inhibition at 100 µM amounted to 43%. The molecule further registered an inhibition constant Ki at hCA I above 10 µM. This molecule also had a Ki at hCA II above 10 µM.

Values taken from article PMC6017447, “Novel 6- and 7-Substituted Coumarins with Inhibitory Action against Lipoxygenase and Tumor-Associated Carbonic Anhydrase IX” (Molecules : A Journal of Synthetic Chemistry and Natural …, 2018).
